Measurements: patent publication US8785488B2 (Exelixis Patent Company LLC, priority 2009, dated 2014)

Biological target: T1, human TGR5 (h-TGR5) (Homo sapiens, UniProt Q8TDU6)
T1 construct: expressed in transfected cells
T1 sequence (Q8TDU6 1-330): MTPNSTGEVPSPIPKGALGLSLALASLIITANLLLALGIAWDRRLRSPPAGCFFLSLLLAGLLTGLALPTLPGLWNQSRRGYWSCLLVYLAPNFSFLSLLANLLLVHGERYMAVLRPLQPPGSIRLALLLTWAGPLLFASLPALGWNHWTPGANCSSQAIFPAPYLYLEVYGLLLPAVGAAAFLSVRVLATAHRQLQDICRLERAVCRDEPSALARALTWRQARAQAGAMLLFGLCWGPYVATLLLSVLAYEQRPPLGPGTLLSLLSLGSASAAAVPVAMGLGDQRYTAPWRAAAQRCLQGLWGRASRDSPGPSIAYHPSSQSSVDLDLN
Assay: TGR5/CRE-Luciferiase Assay (HEK 293 hTGR5/CRE-Luc cells)
Type: cell-based
Details: h-TGR5 CRE-Luc EC50, Table 1; read-out: CRE-Luc (EC50)
Procedure, shortened: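 HEK293 cells stably carrying hTGR5 and a CRE-luciferase reporter were exposed to serially diluted compounds (diluted in DMEM with 5% DMSO) for 6 h. Cells were then lysed in luciferase buffer, luminescence was read, and EC50 values were derived from dose-response curves.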

Row | Compound | EC50 [nM]
1 | CC(C)(c1ccc(OCC(=O)O)c(Cl)c1)c1cnc(SCc2ccc(F)cc2Cl)n1-c1ccc(F)cc1 [[(2-chloro-4-{1-[2-{[(2-chloro-4-fluorophenyl)methyl]thio}-1-(4-fluorophenyl)-1H-imidazol-5-yl]-1-methylethyl}phenyl)oxy]acetic acid] | 1000 to 10000
2 | CC(C)(c1ccc(OCC(=O)O)cc1)c1cnc(SCc2c(F)cccc2Cl)n1-c1ccc(F)cc1 [[(4-{1-[2-{[(2-chloro-6-fluorophenyl)methyl]thio}-1-(4-fluorophenyl)-1H-imidazol-5-yl]-1-methylethyl}phenyl)oxy]acetic acid] | 1000 to 10000
3 | CCOC(=O)c1cc(F)c(CSc2nc(C)c(C(C)(C)c3ccc(Cl)c(OC)c3)n2-c2ccc(F)cc2)c(Cl)c1 [ethyl 3-chloro-4-({[5-{1-[4-chloro-3-(methyloxy)phenyl]-1-methylethyl}-1-(4-fluorophenyl)-4-methyl-1H-imidazol-2-yl]thio}methyl)-5-fluorobenzoate] | 100 to 1000
4 | COC(=O)c1cc(F)c(OCc2ncc(C(C)(C)c3ccc(Cl)c(Cl)c3)n2-c2ccc(F)cc2)c(Cl)c1 [methyl 3-chloro-4-[({5-[1-(3,4-dichlorophenyl)-1-methylethyl]-1-(4-fluorophenyl)-1H-imidazol-2-yl}methyl)oxy]-5-fluorobenzoate] | 100 to 1000
5 | CC(C)(c1ccc(Cl)c(Cl)c1)c1cnc(SCc2c(F)cccc2CO)n1-c1ccc(F)cc1 [{2-[({5-[1-(3,4-dichlorophenyl)-1-methylethyl]-1-(4-fluorophenyl)-1H-imidazol-2-yl}thio)methyl]-3-fluorophenyl}methanol] | 100 to 1000
6 | CC(C)(c1ccc(Cl)c(Cl)c1)c1cnc(SCc2ccc(F)cc2CO)n1-c1ccc(F)cc1 [{2-[({5-[1-(3,4-dichlorophenyl)-1-methylethyl]-1-(4-fluorophenyl)-1H-imidazol-2-yl}thio)methyl]-5-fluorophenyl}methanol] | 1000 to 10000
7 | CC(C)(c1ccc(Cl)c(Cl)c1)c1cnc(SCc2ccc(F)c(CO)c2)n1-c1ccc(F)cc1 [{5-[({5-[1-(3,4-dichlorophenyl)-1-methylethyl]-1-(4-fluorophenyl)-1H-imidazol-2-yl}thio)methyl]-2-fluorophenyl}methanol] | 100 to 1000
8 | CC(C)(c1ccc(Cl)c(Cl)c1)c1cnc(SCc2ccc(F)cc2Cl)n1-c1ccc(F)c(OCC(=O)O)c1 [{[5-(2-{[(2-chloro-4-fluorophenyl)methyl]thio}-5-[1-(3,4-dichlorophenyl)-1-methylethyl]-1H-imidazol-1-yl)-2-fluorophenyl]oxy}acetic acid] | 1000 to 10000

Biological target: T2, h-TGR5 (Homo sapiens, UniProt Q8TDU6)
T2 construct: expressed in transfected cells
T2 sequence (Q8TDU6 1-330): T1 sequence (Q8TDU6 1-330)
Assay: TGR5 cAMP Assay using Cisbio cAMP Dynamic2 htrf kit (hTGR5CRE-luc HEK 293 cells)
Type: cell-based
Details: h-TGR5 cAMP EC50, Table 1; read-out: cAMP (EC50)
Procedure: Compounds were diluted in DPBS with 5% DMSO (8-point serial dilution by half logs) in a 96-well plate and 1 μL was transferred to a 384-well assay plate in quadruplicate. The d2-cAMP and anti-cAMP Ab-cryptate stock solution were prepared as per the instructions in the Cisbio™ (Bedford, Mass.) kit. […] Cells were adjusted to 0.44×10^6 cells/ml followed by addition of IBMX to a final concentration of 0.5 mM. The cells were then mixed with d2-cAMP solution (7.1 mL cells+100 ul d2-cAMP) and 4000 cells (9 μL) were transferred to each well of the 384-well assay plate. Cells without d2-cAMP were added to eight wells as a negative control. The plate was covered and incubated at room temp for 30 min. Then 10 μL of Ab-cryptate solution was added to each well of the assay plate and incubated for 1 hr. The plate was read on an EnVision™ plate reader (Perkin-Elmer, Waltham, Mass.) and the DeltaF value was calculated as per the instructions in the Cisbio™ kit.
In the following tables, EC50 values determined according to the TGR5 cAMP Assay described herein (cAMP); EC50 values determined according to the TGR5/CRE-Luciferiase Assay described herein (CRE-Luc). […] The following compounds in Tables 1 and 2 were made by using procedures described in the above Schemes and Examples, and, where applicable, by making any necessary substitutions of known materials that one skilled in the art would ordinarily understand how to do.

Row | Compound | EC50 [nM]
9 | COCC1CCCN1NC(=O)NS(=O)(=O)c1ccc(CSc2ncc(C(C)(C)c3ccc(Cl)c(OC)c3)n2-c2ccc(F)cc2)c(Cl)c1 (stereo in doubt) [3-chloro-4-({[5-{1-[4-chloro-3-(methyloxy)phenyl]-1-methylethyl}-1-(4-fluorophenyl)-1H-imidazol-2-yl]thio}methyl)-N-[({(2S)-2-[(methyloxy)methyl]pyrrolidin-1-yl}amino)carbonyl]benzenesulfonamide] | 100 to 1000
10 | CNS(=O)(=O)c1ccc(C(C)(C)c2cnc(SCc3ccc(S(=O)(=O)NC(=O)NN4CCCC4)cc3Cl)n2-c2ccc(F)cc2)cc1Cl [2-chloro-4-{1-[2-({[2-chloro-4-({[(pyrrolidin-1-ylamino)carbonyl]amino}sulfonyl)phenyl]methyl}thio)-1-(4-fluorophenyl)-1H-imidazol-5-yl]-1-methylethyl}-N-methylbenzenesulfonamide] | 1000 to 10000
11 | CC(C)(c1ccc(S(C)(=O)=O)cc1)c1cnc(SCc2c(F)cc(C(=O)O)cc2F)n1-c1ccc(F)cn1 [3,5-difluoro-4-({[1-(5-fluoropyridin-2-yl)-5-{1-methyl-1-[4-(methylsulfonyl)phenyl]ethyl}-1H-imidazol-2-yl]thio}methyl)benzoic acid] | 1000 to 10000
12 | CC(C)(c1ccc(S(C)(=O)=O)cc1)c1cnc(SCc2ccc(S(=O)(=O)NC(=O)NN3CCCC3)cc2Cl)n1-c1ccc(F)c(F)c1 [3-chloro-4-({[1-(3,4-difluorophenyl)-5-{1-methyl-1-[4-(methylsulfonyl)phenyl]ethyl}-1H-imidazol-2-yl]thio}methyl)-N-[(pyrrolidin-1-ylamino)carbonyl]benzenesulfonamide] | 1000 to 10000
13 | Cc1cc(-n2c(C(C)(C)c3ccc(S(C)(=O)=O)cc3)cnc2SCc2ccc(S(=O)(=O)NC(=O)NN3CCCC3)cc2Cl)ccc1F [3-chloro-4-({[1-(4-fluoro-3-methylphenyl)-5-{1-methyl-1-[4-(methylsulfonyl)phenyl]ethyl}-1H-imidazol-2-yl]thio}methyl)-N-[(pyrrolidin-1-ylamino)carbonyl]benzenesulfonamide] | 1000 to 10000
14 | COc1cc(C(C)(C)c2cnc(SCc3ccc(S(=O)(=O)NC(=O)NN4CCCC4)cc3Cl)n2-c2ccc(F)cc2)ccc1S(C)(=O)=O [3-chloro-4-({[1-(4-fluorophenyl)-5-{1-methyl-1-[3-(methyloxy)-4-(methylsulfonyl)phenyl]ethyl}-1H-imidazol-2-yl]thio}methyl)-N-[(pyrrolidin-1-ylamino)carbonyl]benzenesulfonamide] | 100 to 1000
15 | CC(C)(c1ccc(F)c(C(F)F)c1)c1cnc(SCc2ccc(S(=O)(=O)NC(=O)NN3CCCC3)cc2Cl)n1-c1ccc(F)cc1 [3-chloro-4-({[5-{1-[3-(difluoromethyl)-4-fluorophenyl]-1-methylethyl}-1-(4-fluorophenyl)-1H-imidazol-2-yl]thio}methyl)-N-[(pyrrolidin-1-ylamino)carbonyl]benzenesulfonamide] | 1000 to 10000
16 | COc1cc(C(C)(C)c2cnc(SCc3ccc(S(=O)(=O)NC(=O)NN4CCCC4)cc3Cl)n2-c2ncc(F)cc2F)ccc1Cl [3-chloro-4-({[5-{1-[4-chloro-3-(methyloxy)phenyl]-1-methylethyl}-1-(3,5-difluoropyridin-2-yl)-1H-imidazol-2-yl]thio}methyl)-N-[(pyrrolidin-1-ylamino)carbonyl]benzenesulfonamide] | 1000 to 10000
17 | COc1cc(C(C)(C)c2cnc(SCc3ccc(S(=O)(=O)NC(=O)NN4CCCC4)cc3Cl)n2-c2cc(C)c(Cl)cn2)ccc1Cl [3-chloro-4-({[5-{1-[4-chloro-3-(methyloxy)phenyl]-1-methylethyl}-1-(5-chloro-4-methylpyridin-2-yl)-1H-imidazol-2-yl]thio}methyl)-N-[(pyrrolidin-1-ylamino)carbonyl]benzenesulfonamide] | 1000 to 10000
18 | Cc1cc(-n2c(C(C)(C)c3ccc(F)cc3)cnc2SCc2ccc(S(=O)(=O)NC(=O)NN3CCCC3)cc2Cl)ccc1F [3-chloro-4-[({1-(4-fluoro-3-methylphenyl)-5-[1-(4-fluorophenyl)-1-methylethyl]-1H-imidazol-2-yl}thio)methyl]-N-[(pyrrolidin-1-ylamino)carbonyl]benzenesulfonamide] | 100 to 1000
19 | COc1cc(-n2c(C(C)(C)c3ccc(F)cc3)cnc2SCc2ccc(S(=O)(=O)NC(=O)NN3CCCC3)cc2Cl)ccc1F [3-chloro-4-[({1-[4-fluoro-3-(methyloxy)phenyl]-5-[1-(4-fluorophenyl)-1-methylethyl]-1H-imidazol-2-yl}thio)methyl]-N-[(pyrrolidin-1-ylamino)carbonyl]benzenesulfonamide] | 100 to 1000
